Key:
TRβ = target: T1, TRβ (Homo sapiens, UniProt P10828); experiment: Transactivation assay (DR4 TRE luciferase reporter, HEK 293), TRβ; format: cell-based; details: HEK 293 transfected with full length TRβ-CMV, 24 hours, firefly luciferase normalized to Renilla
T1 construct: TR expression vector (full length TRα-CMV or TRβ-CMV); expressed in transfected cells; host or cells: HEK 293
T1 sequence (P10828 1-461): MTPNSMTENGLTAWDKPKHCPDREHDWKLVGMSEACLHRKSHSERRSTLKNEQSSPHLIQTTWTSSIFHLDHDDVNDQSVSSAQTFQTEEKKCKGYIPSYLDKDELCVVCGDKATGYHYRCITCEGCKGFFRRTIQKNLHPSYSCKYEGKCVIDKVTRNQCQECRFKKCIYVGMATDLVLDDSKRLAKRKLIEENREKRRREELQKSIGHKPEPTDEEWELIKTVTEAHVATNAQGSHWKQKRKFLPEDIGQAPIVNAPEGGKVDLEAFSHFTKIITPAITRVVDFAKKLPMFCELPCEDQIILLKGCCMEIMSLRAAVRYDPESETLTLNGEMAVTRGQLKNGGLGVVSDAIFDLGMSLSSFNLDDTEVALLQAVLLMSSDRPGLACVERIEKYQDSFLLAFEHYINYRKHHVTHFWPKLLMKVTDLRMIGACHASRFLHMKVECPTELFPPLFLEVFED
Experimental: (§1) The cells were trypsinized with 0.25% trypsin, then diluted to 5×10^5 cells/mL with high glucose DMEM. […] 1.5 µg of TR expression vector (full length TRα-CMV or TRβ-CMV), 1.5 µg of a reporter plasmid containing a DR4 thyroid hormone response element (TRE) direct repeat spaced by four nucleotides (AGGTCAcaggAGGTCA) cloned upstream of a minimal thymidine kinase promoter linked to a firefly luciferase coding sequence, and 0.75 µg of a pRL-SV40 constitutive Renilla luciferase reporter plasmid were diluted into 540 µl of OptiMEM. 27 µL of lipofectamine reagent was diluted into 540 µL of OptiMEM. The plasmid and lipofectamine dilutions were combined then incubated at RT for 10 min. The mixture was then diluted into 4.29 mL of OptiMEM. Plates were washed with 100 µL of phosphate buffered saline (PBS) at pH 7.2 without magnesium or calcium chloride per well. Transfection mixtures were added at 50 µL per well, then incubated at 37° C. for 4 hours. Modified DME/F-12 Ham’s medium without phenol red containing 15 mM HEPES and bicarbonate, 5 mM L-glutamine, charcoal-stripped FBS, 50 units/mL penicillin and 50 µg/mL streptomycin was added at 50 µL per well, then the plates were incubated at 37° C. for 20 hours. Drug stocks were made at 10 mM in DMSO, then serially diluted to 1X concentrations in DME/F-12 Ham’s. Plates were washed with 100 µL of PBS (pH 7.2) per well. 100 µL of each drug stock was added to the wells in triplicate, and then the plates are incubated at 37° C. for 24 hours.
(§2) Cells were assayed for luciferase activity using the Promega DualGlo kit. 50 µl of Luciferase Reagent was added per well, the plate was rocked for 15 min at RT, and then the plate was read for firefly luciferase activity. A 50 µl volume of Stop & Glo Reagent was added per well, then the plate was read for Renilla luciferase activity.

TRα = target: T2, TRα (Homo sapiens, UniProt P10827); experiment: Transactivation assay (DR4 TRE luciferase reporter, HEK 293), TRα; format: cell-based; details: HEK 293 transfected with full length TRα-CMV, 24 hours, firefly luciferase normalized to Renilla
T2 construct: TR expression vector (full length TRα-CMV or TRβ-CMV); expressed in transfected cells; host or cells: HEK 293
T2 sequence (P10827 1-410 isoform P10827-2): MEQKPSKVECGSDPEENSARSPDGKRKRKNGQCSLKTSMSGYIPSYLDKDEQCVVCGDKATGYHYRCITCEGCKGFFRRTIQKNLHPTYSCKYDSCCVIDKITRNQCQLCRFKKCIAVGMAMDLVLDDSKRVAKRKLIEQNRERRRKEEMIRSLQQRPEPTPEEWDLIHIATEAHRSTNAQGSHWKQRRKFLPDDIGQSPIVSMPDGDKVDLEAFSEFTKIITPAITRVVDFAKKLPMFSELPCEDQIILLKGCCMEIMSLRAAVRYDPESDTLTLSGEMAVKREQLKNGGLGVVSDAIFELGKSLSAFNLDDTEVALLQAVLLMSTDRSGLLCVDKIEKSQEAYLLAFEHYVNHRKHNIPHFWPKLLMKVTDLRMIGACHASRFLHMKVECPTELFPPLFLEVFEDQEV
Experimental: as §1, §2

[1] = target: T3, Purified recombinant human FAAH (rhFAAH) (Homo sapiens, UniProt O00519); experiment: FAAH substrate evaluation (formation of acid metabolite); format: biochemical; details: 0.5 ng/µL rhFAAH, 1 µM test compound, Tris-EDTA buffer pH 8.0, room temperature, 0-60 minutes
T3 construct: purchased Cayman Chemical (Ann Arbor, MI, USA)
T3 sequence (O00519 1-579): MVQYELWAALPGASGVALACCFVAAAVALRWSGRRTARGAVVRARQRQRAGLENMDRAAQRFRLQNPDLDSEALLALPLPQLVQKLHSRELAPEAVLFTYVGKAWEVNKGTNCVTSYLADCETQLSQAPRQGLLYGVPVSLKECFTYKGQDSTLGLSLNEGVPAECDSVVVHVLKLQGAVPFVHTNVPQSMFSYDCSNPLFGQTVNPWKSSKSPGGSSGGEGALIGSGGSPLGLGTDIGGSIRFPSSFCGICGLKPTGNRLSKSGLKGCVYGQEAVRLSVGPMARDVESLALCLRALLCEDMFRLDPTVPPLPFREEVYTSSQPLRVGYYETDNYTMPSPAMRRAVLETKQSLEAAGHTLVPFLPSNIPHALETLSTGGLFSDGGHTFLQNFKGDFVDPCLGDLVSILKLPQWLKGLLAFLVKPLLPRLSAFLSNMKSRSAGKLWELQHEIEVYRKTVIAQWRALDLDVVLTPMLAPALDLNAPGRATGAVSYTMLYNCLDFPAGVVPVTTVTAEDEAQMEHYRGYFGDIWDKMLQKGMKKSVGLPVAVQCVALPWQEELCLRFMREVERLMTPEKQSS
Experimental: Purified recombinant human FAAH (rhFAAH) was purchased from Cayman Chemical (Ann Arbor, MI, USA). The total volume for each incubation was 400 µL containing a final 0.5 ng/µL rhFAAH, 1 µM test compound, 1.25% ethanol or 1 µM PF-3845 (FAAH inhibitor), and 0.1% bovine serum albumin in Tris-EDTA buffer at pH 8.0). The positive control was LL-341001. The incubation was conducted at the room temperature. At 0, 5, 15, 30 and 60 minutes, an aliquot of 30 µL reaction mixtures was removed and mixed with 300 µL acetonitrile containing 5 ng/mL terfenadine and 10 ng/mL tolbutamide as internal standards to quench the reaction. The resulting mixture was centrifuged at 4000 rpm, 4° C. for 15 minutes, and 100 µL supernatant was ready for LC-MS/MS analysis to measure the formation of acid metabolite.
Acquity Ultra Performance LC system from Waters was used for sample analysis. The chromatography was performed on a reverse phase Kinetex 2.6 µm C18 column, 2.1 × 30 mm, 100 Å. The mobile phase A comprised of 0.1% formic acid in water and mobile phase B comprised of 0.1% formic acid in acetonitrile with a 2-min run time at the flow rate of 0.8 mL/min for the acid metabolite from positive control or a 1.5 min run time at the flow rate of 0.9 mL/min for the acid metabolite of test compounds. The mass spectrometer (API-5500 and API Q Trap 4000 Applied Biosystems/MDS SCIEX Instruments, Framingham, MA, USA) was operated under ESI positive or negative ion MRM mode.
The formation of acid metabolite was monitored and quantified using one calibration point of 1 µM. The observed rate constant (ke) for the acid metabolite formation was calculated by plotting the metabolite concentration versus time of incubation with the slope being ke and is shown in Table 1.

Compound	EC50 (TRβ)	EC50 (TRα)	ke (observed rate constant for the acid metabolite formation) [1]
2-(3,5-dichloro-4-(hydroxy-3-(propan-2-yl-d7)benzyl)phenoxy)acetic Acid [Compound 18]	1 to 1000 nM	1 to 1000 nM	
[2H]C([2H])([2H])C([2H])(c1cc(Cc2c(Cl)cc(OCC(=O)NC)cc2Cl)ccc1O)C([2H])([2H])[2H] [Compound 1, 2-(3,5-dichloro-4-(4-hydroxy-3-(propan-2-yl-d7)benzyl)phenoxy)-N-Methylacetamide]			A (A = ke is less than 3.0 and more than or equal to 0.1.)
[2H]C([2H])(c1ccc(O)c(C(C)C)c1)c1c(Cl)cc(OCC(=O)O)cc1Cl [Compound 4, 2-(3,5-dichloro-4-((4-hydroxy-3-isopropylphenyl)methyl-d2)phenoxy)acetic Acid]	1 to 1000 nM	1 to 1000 nM	
[2H]C([2H])(c1ccc(O)c(C(C)C)c1)c1c(Cl)cc(OCC(N)=O)cc1Cl [Compound 5, 2-(3,5-dichloro-4-((4-hydroxy-3-isopropylphenyl)methyl-d2)phenoxy)acetamide]			A (A = ke is less than 3.0 and more than or equal to 0.1.)
[2H]c1c(Cl)c(Cc2ccc(O)c(C(C)C)c2)c(Cl)c([2H])c1OCC(=O)O [Compound 6, 2-(3,5-dichloro-4-(4-hydroxy-3-isopropylbenzyl)phenoxy-2,6-d2)acetic Acid]	1 to 1000 nM	1 to 1000 nM	
[2H]c1c(Cl)c(Cc2ccc(O)c(C(C)C)c2)c(Cl)c([2H])c1OCC(N)=O [Compound 7, 2-(3,5-dichloro-4-(4-hydroxy-3-isopropylbenzyl)phenoxy-2,6-d2)acetamide]			A (A = ke is less than 3.0 and more than or equal to 0.1.)
[2H]C([2H])(Oc1cc(Cl)c(Cc2ccc(O)c(C(C)C)c2)c(Cl)c1)C(=O)O [Compound 8, 2-(3,5-dichloro-4-(4-hydroxy-3-isopropylbenzyl)phenoxy)acetic-2,2-d2 Acid]	1 to 1000 nM	1 to 1000 nM	
[2H]C([2H])(Oc1cc(Cl)c(Cc2ccc(O)c(C(C)C)c2)c(Cl)c1)C(N)=O [Compound 9, 2-(3,5-dichloro-4-(4-hydroxy-3-isopropylbenzyl)phenoxy)acetamide-2,2-d2]			A (A = ke is less than 3.0 and more than or equal to 0.1.)
[2H]C([2H])(c1ccc(O)c(C(C)C)c1)c1c(C)cc(OCC(=O)NC)cc1C [Compound 13, 2-(4-((4-hydroxy-3-isopropylphenyl)methyl-d2)-3,5-dimethylphenoxy)-N-methylacetamide]			A (A = ke is less than 3.0 and more than or equal to 0.1.)
[2H]C([2H])(Oc1cc(C)c(Cc2ccc(O)c(C(C)C)c2)c(C)c1)C(=O)NC [Compound 17, 2-(4-(4-hydroxy-3-isopropylbenzyl)-3,5-dimethylphenoxy)-N-methylacetamide-2,2-d2]			A (A = ke is less than 3.0 and more than or equal to 0.1.)
[2H]C([2H])([2H])C([2H])(c1cc(Cc2c(Cl)cc(OCC(=O)O)cc2Cl)ccc1O)C([2H])([2H])[2H] [Compound A-15]	1 to 1000 nM	1 to 1000 nM	

From patent publication US20230348364A1, “ISOTOPIC THYROMIMETIC COMPOUNDS” (Autobahn Therapeutics, Inc., priority 2020, published 2023)
